The values below come from patent US10975098B2, “Substituted aminothiazolopyrimidinediones for the treatment of virus infection” (Hoffmann-La Roche Inc., priority 2015, dated 2021).

The structures appear in SMILES notation.

For one test, the target named is T1, human TLR8 (Homo sapiens, UniProt Q9NR97).
T1 sequence (Q9NR97 27-1041): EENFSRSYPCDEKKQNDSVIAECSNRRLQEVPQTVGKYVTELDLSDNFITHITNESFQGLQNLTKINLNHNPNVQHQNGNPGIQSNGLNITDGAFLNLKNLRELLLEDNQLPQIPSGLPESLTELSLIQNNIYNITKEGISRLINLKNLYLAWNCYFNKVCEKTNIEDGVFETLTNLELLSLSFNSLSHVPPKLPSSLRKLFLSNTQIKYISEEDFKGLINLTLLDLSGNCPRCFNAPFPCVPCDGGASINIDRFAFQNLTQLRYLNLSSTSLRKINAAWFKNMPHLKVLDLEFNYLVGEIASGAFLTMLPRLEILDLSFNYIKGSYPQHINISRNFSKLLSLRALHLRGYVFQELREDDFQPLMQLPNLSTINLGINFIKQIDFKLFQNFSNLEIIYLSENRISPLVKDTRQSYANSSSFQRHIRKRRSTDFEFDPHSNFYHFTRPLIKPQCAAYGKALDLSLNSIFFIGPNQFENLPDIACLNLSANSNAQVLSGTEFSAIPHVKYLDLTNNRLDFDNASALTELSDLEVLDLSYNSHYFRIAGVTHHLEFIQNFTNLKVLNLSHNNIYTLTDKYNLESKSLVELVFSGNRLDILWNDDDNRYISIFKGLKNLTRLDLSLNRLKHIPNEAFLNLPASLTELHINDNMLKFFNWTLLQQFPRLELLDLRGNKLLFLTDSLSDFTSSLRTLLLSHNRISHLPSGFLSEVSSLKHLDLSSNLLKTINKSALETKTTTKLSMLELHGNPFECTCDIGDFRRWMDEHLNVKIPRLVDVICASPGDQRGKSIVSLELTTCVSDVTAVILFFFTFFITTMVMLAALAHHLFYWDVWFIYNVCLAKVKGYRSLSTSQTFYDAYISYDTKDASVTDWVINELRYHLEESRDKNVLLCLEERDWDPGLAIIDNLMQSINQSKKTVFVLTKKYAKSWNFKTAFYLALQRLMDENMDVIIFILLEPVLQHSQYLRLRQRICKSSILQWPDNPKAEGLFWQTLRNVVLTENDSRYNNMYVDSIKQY
In words: HEK293-Blue-hTLR-8 cells assay (SEAP reporter). The settings on record: TLR8 agonism, 20 hours incubation, 1% DMSO. The format is cell-based. The text has this:
HEK293-Blue-hTLR-8 cells assay:
(§1) A stable HEK293-Blue-hTLR-8 cell line was purchased from InvivoGen (Cat. #: hkb-htlr8, San Diego, Calif., USA). These cells were designed for studying the stimulation of human TLR8 by monitoring the activation of NF-κB. A SEAP (secreted embryonic alkaline phosphatase) reporter gene was placed under the control of the IFN-β minimal promoter fused to five NF-κB and AP-1-binding sites. The SEAP was induced by activating NF-κB and AP-1 via stimulating HEK-Blue hTLR8 cells with TLR8 ligands. Therefore the reporter expression was regulated by the NF-κB promoter upon stimulation of human TLR8. The cell culture supernatant SEAP reporter activity was determined using QUANTI-Blue™ kit (Cat. #: rep-qb 1, Invivogen, San Diego, Calif., USA) at a wavelength of 640 nm, a detection medium that turns purple to blue in the presence of alkaline phosphatase.
(§2) HEK293-Blue-hTLR8 cells were incubated at a density of 250,000-450,000 cells/mL in a volume of 180 μL in a 96-well plate in Dulbecco's Modified Eagle's medium (DMEM) containing 4.5 g/L glucose, 50 U/mL penicillin, […], […], 2 mM L-glutamine, 10% (v/v) heat-inactivated fetal bovine serum for 24 hours. Then the HEK293-Blue-hTLR-8 cells were incubated with addition of 20 μL test compound in a serial dilution in the presence of final DMSO at 1% and perform incubation under 37° C. in a CO2 incubator for 20 hours. Then 20 μL of the supernatant from each well was incubated with 180 μL Quanti-blue substrate solution at 37° C. for 1-3 hours and the absorbance was read at 620-655 nm using a spectrophotometer. The signalling pathway that TLR8 activation leads to downstream NF-κB activation has been widely accepted, and therefore similar reporter assay was also widely used for evaluating TLR8 agonist.
(§3) The compounds of the present invention were tested in the above assay for their TLR7 and TLR8 agonism activities as described herein and results are listed in Table 1.

The target of a further test is T2, human TLR7 (Homo sapiens, UniProt Q9NYK1).
T2 sequence (Q9NYK1 27-1049): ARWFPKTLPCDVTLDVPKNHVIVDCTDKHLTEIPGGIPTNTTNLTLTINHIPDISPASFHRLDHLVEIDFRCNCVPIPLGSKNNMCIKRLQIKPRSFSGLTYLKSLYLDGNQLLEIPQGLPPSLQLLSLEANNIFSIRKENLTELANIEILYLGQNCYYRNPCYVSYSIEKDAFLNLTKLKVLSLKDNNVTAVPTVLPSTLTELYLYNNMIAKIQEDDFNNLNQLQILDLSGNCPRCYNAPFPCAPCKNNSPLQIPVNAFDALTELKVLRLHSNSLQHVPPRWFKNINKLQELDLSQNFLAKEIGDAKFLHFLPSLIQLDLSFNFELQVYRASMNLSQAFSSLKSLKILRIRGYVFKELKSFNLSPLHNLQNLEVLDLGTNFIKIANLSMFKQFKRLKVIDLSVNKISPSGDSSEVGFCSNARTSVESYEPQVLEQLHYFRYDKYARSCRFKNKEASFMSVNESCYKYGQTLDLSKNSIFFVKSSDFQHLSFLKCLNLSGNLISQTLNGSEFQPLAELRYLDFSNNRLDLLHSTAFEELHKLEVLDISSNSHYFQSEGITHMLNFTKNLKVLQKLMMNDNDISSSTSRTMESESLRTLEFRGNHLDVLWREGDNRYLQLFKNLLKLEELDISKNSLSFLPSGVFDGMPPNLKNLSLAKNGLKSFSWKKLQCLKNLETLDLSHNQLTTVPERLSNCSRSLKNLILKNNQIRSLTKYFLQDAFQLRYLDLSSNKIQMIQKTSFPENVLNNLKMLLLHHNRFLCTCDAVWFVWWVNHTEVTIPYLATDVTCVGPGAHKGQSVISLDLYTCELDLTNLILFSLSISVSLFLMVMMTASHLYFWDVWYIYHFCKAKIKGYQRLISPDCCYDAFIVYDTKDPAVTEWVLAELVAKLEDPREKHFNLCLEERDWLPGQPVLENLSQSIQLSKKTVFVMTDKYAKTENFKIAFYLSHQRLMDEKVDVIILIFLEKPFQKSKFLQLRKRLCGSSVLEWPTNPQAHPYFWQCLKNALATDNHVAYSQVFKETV
The test is described as follows: HEK293-Blue-hTLR-7 cells assay (SEAP reporter). The format is cell-based. To be noted: TLR7 agonism, 20 hours incubation, 1% DMSO.
Excerpt: HEK293-Blue-hTLR-7 Cells Assay
as §1, with “HEK293-Blue-hTLR-7” for “HEK293-Blue-hTLR-8”, “hkb-htlr7,” for “hkb-htlr8,”, “TLR7” for “TLR8”, “hTLR7” for “hTLR8”, “TLR7.” for “TLR8.”
as §2, with “HEK293-Blue-hTLR7” for “HEK293-Blue-hTLR8”, “250,000˜450,000” for “250,000-450,000”, “HEK293-Blue-hTLR-7” for “HEK293-Blue-hTLR-8”, “TLR7” for “TLR8”, “TLR7 agonist (Tsuneyasu Kaisho and Takashi Tanaka, Trends in Immunology, Volume 29, Issue 7, July 2008, Pages 329. sci; Hiroaki Hemmi et al, Nature Immunology 3, 2002, 196-200).” for “TLR8 agonist.”
as §3

`CC[C@H](O)[C@@H]1C[C@@H]([C@H](C)N)[C@H](n2c(=O)sc3c(=O)[nH]c(N)nc32)O1` [Example 1-A, 5-Amino-3-[(2R,3S,5S)-3-[(1S)-1-aminoethyl]-5-[(1S)-1-hydroxypropyl]tetrahydrofuran-2-yl]-6H-thiazolo[4,5-d]pyrimidine-2,7-dione]: the EC50 at human TLR8 is 1.3 µM; on human TLR7, 75 µM.
The like results for `CC[C@H](O)[C@@H]1C[C@@H]([C@@H](C)N)[C@H](n2c(=O)sc3c(=O)[nH]c(N)nc32)O1` [Example 1-B, 5-amino-3-[(2R,3S,5S)-3-[(1R)-1-aminoethyl]-5-[(1S)-1-hydroxypropyl]tetrahydrofuran-2-yl]-6H-thiazolo[4,5-d]pyrimidine-2,7-dione] were, in that order, 55 µM and 101 µM.
For `CC[C@H](O)[C@@H]1C[C@@H]([C@@H](C)NC)[C@H](n2c(=O)sc3c(=O)[nH]c(N)nc32)O1` [Example 2, 5-Amino-3-[(2R,3S,5S)-5-[(1S)-1-hydroxypropyl]-3-[(1R)-1-(methylamino)ethyl]tetrahydrofuran-2-yl]-6H-thiazolo[4,5-d]pyrimidine-2,7-dione] the same measures were 27 µM and 81 µM.
For `CCCN[C@H](C)[C@@H]1C[C@@H]([C@@H](O)CC)O[C@H]1n1c(=O)sc2c(=O)[nH]c(N)nc21` [Example 3, 5-Amino-3-[(2R,3S,5S)-5-[(1S)-1-hydroxypropyl]-3-[(1R)-1-(propylamino)ethyl]tetrahydrofuran-2-yl]-6H-thiazolo[4,5-d]pyrimidine-2,7-dione] the same measures were 125 µM and 7.7 µM.
For the compound `CC[C@H](O)[C@@H]1C[C@@H]([C@@H](C)NC2CC2)[C@H](n2c(=O)sc3c(=O)[nH]c(N)nc32)O1` [Example 4, 5-Amino-3-[(2R,3S,5S)-3-[(1R)-1-(cyclopropylamino)ethyl]-5-[(1S)-1-hydroxypropyl]tetrahydrofuran-2-yl]-6H-thiazolo[4,5-d]pyrimidine-2,7-dione], the concentration giving a half-maximal response (EC50) at human TLR8 was 94 µM; on human TLR7 it was 3.5 µM.
The like results for `CC[C@H](O)[C@@H]1C[C@@H]([C@@H](C)NCc2ccccc2)[C@H](n2c(=O)sc3c(=O)[nH]c(N)nc32)O1` [Example 5, 5-Amino-3-[(2R,3S,5S)-3-[(1R)-1-(benzylamino)ethyl]-5-[(1S)-1-hydroxypropyl]tetrahydrofuran-2-yl]-6H-thiazolo[4,5-d]pyrimidine-2,7-dione] were, in that order, 85 µM and 3.7 µM.
On to `CC[C@H](O)[C@@H]1C[C@@H]([C@H](C)NC)[C@H](n2c(=O)sc3c(=O)[nH]c(N)nc32)O1` [Example 6, 5-Amino-3-[(2R,3S,5S)-5-[(1S)-1-hydroxypropyl]-3-[(1S)-1-(methylamino)ethyl]tetrahydrofuran-2-yl]-6H-thiazolo[4,5-d]pyrimidine-2,7-dione], for which the half-maximal effective concentration (EC50) at human TLR8 came out at 4 µM; at human TLR7 it was 250 µM.
For `CC[C@H](O)[C@@H]1C[C@@H]([C@H](C)NCc2ccccc2)[C@H](n2c(=O)sc3c(=O)[nH]c(N)nc32)O1` [Example 7, 5-Amino-3-[(2R,3S,5S)-3-[(1S)-1-(benzylamino)ethyl]-5-[(1S)-1-hydroxypropyl]tetrahydrofuran-2-yl]-6H-thiazolo[4,5-d]pyrimidine-2,7-dione] the same measures were 2.2 µM and 3.4 µM.
The like results for `CC[C@H](O)[C@@H]1C[C@@H]([C@@H](C)N(C)C)[C@H](n2c(=O)sc3c(=O)[nH]c(N)nc32)O1` [Example 8, 5-Amino-3-[(2R,3S,5S)-3-[(1R)-1-(dimethylamino)ethyl]-5-[(1S)-1-hydroxypropyl]tetrahydrofuran-2-yl]-6H-thiazolo[4,5-d]pyrimidine-2,7-dione] were, in that order, 185 µM and 82 µM.
